Reference: patent publication US8334236B2, “Ring-fused 2-pyridone derivatives and herbicides” (Kumiai Chemical Industry Co., Ltd., priority 2009, dated 2012)

Legend:
[1] = system: Monochoria vaginalis (Burm. f.) Presl var. plantaginea (Roxb.) Solms-Laub.; assay: Test Example 1: herbicidal effects in paddy field soil treatment; type: in vivo; set-up: scale not given here; conditions: 1000 g active ingredient per hectare, 21st day after treatment
Experimental: (§1) 100-cm^2 plastic pots were filled with paddy field soil. After puddling and leveling, seeds of Echinochloa oryzicola Vasing, Monochoria vaginalis (Burm. f.) Presl var. plantaginea (Roxb.) Solms-Laub., and Scirpus juncoides Roxb. var. ohwianus. T. Koyama were sowed in the pots, and the soil was waterlogged to a water depth of 3 cm. On the next day, a wettable powder formulation prepared according to Formulation Example 1 was diluted with water, and the dilution was added dropwise onto the water surface. The amount of application was an amount equivalent to 1000 g of the active ingredient per hectare. Thereafter, the plants were grown in a greenhouse, and on the 21st day after the treatment, the herbicidal effects were investigated according to the criteria described in Table 71.
(§2) In addition, comparative compound A, comparative compound B, comparative compound C, and comparative compound D in the tables represent Compound Nos. 70, 34, 32, and 31, respectively, as described in EP-283261. The structural formulas of these compounds are presented below.

[2] = system: Scirpus juncoides Roxb. var. ohwianus. T. Koyama; assay: as above; type: in vivo; set-up: scale not given here; conditions: 1000 g active ingredient per hectare, 21st day after treatment
Experimental: as §1, §2

[3] = system: Echinochloa oryzicola Vasing; assay: as above; type: in vivo; set-up: scale not given here; conditions: 1000 g active ingredient per hectare, 21st day after treatment
Experimental: as §1, §2

Amaranthus retroflexus [4] = assay: Test Example 2: herbicidal effects in farmland soil treatment; type: in vivo; set-up: scale not given here; conditions: 1000 g active ingredient per hectare, 21st day after treatment
Experimental: (§3) 80-cm^2 plastic pots were filled with farmland soil. Seeds of Abutilon theophrasti medicus and Amaranthus retroflexus were sowed in the pots, and soil was covered. A wettable powder formulation prepared according to Formulation Example 1 was diluted with water, and the dilution was uniformly sprayed on the soil surface with a small sprayer, in an amount equivalent to 1000 liters per hectare, such that 1000 g of the active ingredient was applied per hectare. Thereafter, the plants were grown in a greenhouse, and on the 21st day after the treatment, the herbicidal effects were investigated according to the criteria described in Table 71 shown above.

[5] = system: Abutilon theophrasti medicus; assay: as above; type: in vivo; set-up: scale not given here; conditions: 1000 g active ingredient per hectare, 21st day after treatment
Experimental: as §3

Setaria viridis [6] = assay: as above; type: in vivo; set-up: scale not given here; conditions: 1000 g active ingredient per hectare, 21st day after treatment
Echinochloa crus-galli = assay: as above; type: in vivo; set-up: scale not given here; conditions: 1000 g active ingredient per hectare, 21st day after treatment
Setaria viridis [7] = assay: Test Example 3: herbicidal effects in farmland foliar treatment; type: in vivo; set-up: scale not given here; conditions: 1000 g active ingredient per hectare, 14th day after treatment
Amaranthus retroflexus [8] = assay: as above; type: in vivo; set-up: scale not given here; conditions: 1000 g active ingredient per hectare, 14th day after treatment
Experimental: (§4) 80-cm^2 plastic pots were filled with farmland soil. Seeds of Echinochloa crus-galli (L.) P. Beauv. var. crus-galli, Abutilon theophrasti medicus, and Amaranthus retroflexus were sowed in the pots, and the plants were grown for two weeks in a greenhouse. A wettable powder formulation prepared according to Formulation Example 1 was diluted with water, and the dilution was applied by foliar treatment by spraying with a small sprayer over the whole plant from the upper part, in an amount equivalent to 1000 liters per hectare, such that 1000 g of the active ingredient was applied per hectare. Thereafter, the plants were grown in a greenhouse, and on the 14th day after the treatment, the herbicidal effects were investigated according to the criteria described in Table 71 shown above.

[9] = system: Abutilon theophrasti medicus; assay: as above; type: in vivo; set-up: scale not given here; conditions: 1000 g active ingredient per hectare, 14th day after treatment
Experimental: as §4

[10] = system: Echinochloa crus-galli (L.) P. Beauv. var. crus-galli; assay: as above; type: in vivo; set-up: scale not given here; conditions: 1000 g active ingredient per hectare, 14th day after treatment
Experimental: as §4

Row | melting point [°C] | Structure (SMILES) | Herbicidal effect index, Monochoria vaginalis [1] | Herbicidal effect index, Scirpus juncoides [2] | Herbicidal effect index, Echinochloa oryzicola [3] | Herbicidal effect index, Amaranthus retroflexus (Amaranthus retroflexus [4]) | Herbicidal effect index, Abutilon thophrasti [5] | Herbicidal effect index, Setaria viridis (Setaria viridis [6]) | Herbicidal effect index, Echinochloa crus-galli (Echinochloa crus-galli) | Herbicidal effect index, Setaria viridis (Setaria viridis [7]) | Herbicidal effect index, Amaranthus retroflexus (Amaranthus retroflexus [8]) | Herbicidal effect index, Abutilon theoprasti [9] | Herbicidal effect index, Echinochloa crus-galli [10]
1 | 179 to 181 | Cn1c(=O)c(C(=O)C2=C(O)CCCC2=O)cc2ccccc21 [I-2, 3-(2-hydroxy-6-oxo-1-cyclohexenecarbonyl)-1-methylquinolin-2(1H)-one] | 5 | 5 | 5 | – | – | – | – | – | – | – | –
2 | 190 to 192 | O=C1CCCC(O)=C1C(=O)c1cc2cccnc2n(Cc2ccccc2)c1=O [II-24, 1-benzyl-3-(2-hydroxy-6-oxo-1-cyclohexenecarbonyl)-1,8-naphthyridin-2(1H)-one] | 5 | 5 | 5 | 5 | 5 | 3 | 5 | – | – | – | –
3 | 147 to 150 | COc1ccccc1Cn1c(=O)c(C(=O)C2=C(O)CCCC2=O)cc2cccnc21 [II-37, 3-(2-hydroxy-6-oxo-1-cyclohexenecarbonyl)-1-(2-methoxybenzyl)-1,8-naphthyridin-2(1H)-one] | 5 | 5 | 5 | – | – | – | – | – | – | – | –
4 | – | Cc1ccccc1-n1c(=O)c(C(=O)C2=C(O)CCCC2=O)cc2cccnc21 [II-48] | 5 | 5 | 5 | 5 | 4 | 5 | 5 | 5 | 5 | 5 | 5
5 | – | O=C1CCCC(O)=C1C(=O)c1cc2cccnc2n(-c2cccc(C(F)(F)F)c2)c1=O [II-52] | 5 | 5 | 5 | 5 | 5 | 5 | 5 | 5 | 5 | 5 | 5
6 | – | COc1ccccc1-n1c(=O)c(C(=O)C2=C(O)CCCC2=O)cc2cccnc21 [II-54] | 5 | 5 | 5 | 5 | 5 | 5 | 5 | 5 | 5 | 5 | 5
7 | – | COc1cccc(-n2c(=O)c(C(=O)C3=C(O)CCCC3=O)cc3cccnc32)c1 [II-55] | 5 | 5 | 5 | 5 | 5 | 5 | 5 | 5 | 5 | 5 | 5
8 | – | COc1ccc(-n2c(=O)c(C(=O)C3=C(O)CCCC3=O)cc3cccnc32)cc1 [II-56] | 5 | 5 | 5 | 5 | 5 | 5 | 5 | 5 | 5 | 5 | 5
9 | – | Cc1ccc(C)c(-n2c(=O)c(C(=O)C3=C(O)CCCC3=O)cc3cccnc32)c1 [II-58] | 5 | 5 | 5 | 5 | 5 | 5 | 5 | 5 | 5 | 5 | 5
10 | – | Cc1ccc2cc(C(=O)C3=C(O)CCCC3=O)c(=O)n(-c3ccccc3)c2n1 [II-123] | 5 | 5 | 5 | 5 | 5 | 5 | 5 | 5 | 5 | 5 | 5
11 | – | CC(C)c1ccc2cc(C(=O)C3=C(O)CCCC3=O)c(=O)n(-c3ccccc3)c2n1 [II-128] | 5 | 5 | 5 | 5 | 4 | 5 | 5 | 5 | 5 | 5 | 5
12 | – | Cn1c(=O)c(C(=O)C2=C(O)CCCC2=O)cc2ccc(C(F)F)nc21 [II-131] | 5 | 5 | 5 | 5 | 5 | 3 | 4 | 4 | 5 | 5 | 4
13 | – | O=C1CCCC(O)=C1C(=O)c1cc2ccc(C(F)F)nc2n(-c2ccccc2)c1=O [II-133] | 5 | 5 | 5 | 5 | 5 | 5 | 5 | 5 | 5 | 5 | 5
14 | – | Cn1c(=O)c(C(=O)C2=C(O)CCCC2=O)cc2ccc(C(F)(F)Cl)nc21 [II-141] | 5 | 5 | 5 | 3 | 5 | 4 | 3 | 4 | 4 | 5 | 3
15 | – | O=C1CCCC(O)=C1C(=O)c1cc2ccc(C(F)(F)Cl)nc2n(-c2ccccc2)c1=O [II-143] | 5 | 5 | 5 | 5 | 5 | 5 | 5 | 5 | 5 | 5 | 5
